Like-named read-outs stand apart in the source and are kept apart here.
How the values were obtained:
Assay type in all cases: cell-based, human
[1] = system: MV4;11 cells; test: Cell proliferation experiment (Alamar blue, 72 h), MV4;11; conditions: read-out: Inhibitory activity IC50 on MV4;11
Outline: (§1)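 Cells were passaged at least twice, harvested in log phase and plated in 96 wells. Compound in complete medium was added at 5-fold gradient concentrations, duplicates per concentration. After 72 h culture, Alamar blue fluorescence was measured and IC50 fitted.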

[2] = system: NCIH82 cells; test: Cell proliferation experiment, NCI-H82; conditions: read-out: Inhibitory activity IC50 on NCI-H82
Outline: as §1

[3] = system: MDA-MB-231 cells; test: Cell proliferation experiment, MDA-MB-231
Outline: as §1

[4] = system: PC-3; test: Cell proliferation experiment, PC-3; conditions: read-out: Inhibitory activity IC50 on PC-3
Outline: as §1

[5] = Homo sapiens, MV4-11, MV4;11 cells
[6] = Homo sapiens, NCI-H82, NCI-H82 cells
[7] = Homo sapiens, MDA-MB-231, MDA-MB-231 cells, read-out: Inhibitory activity IC50 on MDA-MB-231
[8] = Homo sapiens, MDA-MB-231, read-out: Inhibitory activity IC50 on MDA-MB-231
[9] = MDA-MB-231 cells, read-out: Inhibitory activity IC50 on MDA-MB-231

| SMILES | IC50 [1, 5] [µM] | IC50 [2, 6] [µM] | IC50 [3, 7] [µM] | IC50 ([4]; Homo sapiens, PC-3, PC-3 cells) [µM] | IC50 ([1]; MV4;11 cells) [µM] | IC50 [3, 8] [µM] | IC50 [3, 9] [µM] | IC50 ([4]; PC-3 cells) [µM] | IC50 ([2]; NCI-H82 cells) [µM] |
| --- | --- | --- | --- | --- | --- | --- | --- | --- | --- |
| CNC(=O)c1ccccc1Nc1nc(Nc2ccc(N3CCN(C(=O)NCCOCCOCC(N)COCCC(=O)Nc4cccc5c4CN(C4CCC(=O)NC4=O)C5=O)CC3)cc2)ncc1Cl (stereo not drawn) [UB-181073] | < 0.01 | > 1 | > 1 | > 1 |  |  |  |  |  |
| CNC(=O)c1ccccc1Nc1nc(Nc2ccc(N3CCN(C(=O)NCCOCC(O)COCCOCCC(=O)Nc4ccc5c(c4)CN(C4CCC(=O)NC4=O)C5=O)CC3)cc2)ncc1Cl (stereo not drawn) [UB-181074] | 0.01 to 0.1 | > 1 | > 1 | > 1 |  |  |  |  |  |
| O=C1CCC(N2Cc3cc(NC(=O)CCOCCOCCOCC(O)Cn4cc(-c5ccc(Nc6ncc7c(n6)-c6ccc(Cl)cc6C(c6c(F)cccc6F)=NC7)cc5)nn4)ccc3C2=O)C(=O)N1 (stereo not drawn) [UB-181075] | > 1 | 0.1 to 1 | > 1 | > 1 |  |  |  |  |  |
| O=C1CCC(N2Cc3cc(NC(=O)CCOCCOCC(O)COCCn4cc(-c5ccc(Nc6ncc7c(n6)-c6ccc(Cl)cc6C(c6c(F)cccc6F)=NC7)cc5)nn4)ccc3C2=O)C(=O)N1 (stereo not drawn) [UB-181077] |  | > 1 | > 1 | > 1 | 0.1 to 1 |  |  |  |  |
| CNC(=O)c1ccccc1Nc1nc(Nc2ccc(N3CCN(C(=O)NCCOCC(O)COCCOCCC(=O)Nc4cccc5c4CN(C4CCC(=O)NC4=O)C5=O)CC3)cc2)ncc1Cl (stereo not drawn) [UB-181079] | < 0.01 | 0.1 to 1 | > 1 | > 1 |  |  |  |  |  |
| CNC(=O)c1ccccc1Nc1nc(Nc2ccc(N3CCN(C(=O)NCC(O)COCCOCCOCCC(=O)Nc4ccc5c(c4)CN(C4CCC(=O)NC4=O)C5=O)CC3)cc2)ncc1Cl (stereo not drawn) [UB-181081] | 0.01 to 0.1 | > 1 | > 1 | > 1 |  |  |  |  |  |
| CNC(=O)c1ccccc1Nc1nc(Nc2ccc(N3CCN(C(=O)NCC(O)COCCOCCOCCC(=O)Nc4cccc5c4CN(C4CCC(=O)NC4=O)C5=O)CC3)cc2)ncc1Cl (stereo not drawn) [UB-181082] | 0.01 to 0.1 | > 1 | > 1 | > 1 |  |  |  |  |  |
| CNC(=O)c1ccccc1Nc1nc(Nc2ccc(N3CCN(C(=O)NCCCOCC(=O)COCC#Cc4cccc5c4CN(C4CCC(=O)NC4=O)C5=O)CC3)cc2)ncc1Cl (stereo not drawn) [UB-181083] | 0.01 to 0.1 | > 1 | > 1 | > 1 |  |  |  |  |  |
| CNC(=O)c1ccccc1Nc1nc(Nc2ccc(N3CCN(C(=O)N[C@H]4CC[C@@H](NCCCOCCC#Cc5ccc6c(c5)CN(C5CCC(=O)NC5=O)C6=O)CC4)CC3)cc2)ncc1Cl (stereo partly drawn) [UB-181084] | < 0.01 | 0.1 to 1 | 0.1 to 1 | 0.1 to 1 |  |  |  |  |  |
| CNC(=O)c1ccccc1Nc1nc(Nc2ccc(N3CCN(C(=O)NCCOCC(=O)COCCOCCC(=O)Nc4ccc5c(c4)CN(C4CCC(=O)NC4=O)C5=O)CC3)cc2)ncc1Cl (stereo not drawn) [UB-181086] | 0.01 to 0.1 | 0.1 to 1 | > 1 | > 1 |  |  |  |  |  |
| CNC(=O)c1ccccc1Nc1nc(Nc2ccc(N3CCN(C(=O)N[C@H]4CC[C@@H](NCCCOCCC#Cc5cccc6c5CN(C5CCC(=O)NC5=O)C6=O)CC4)CC3)cc2)ncc1Cl (stereo partly drawn) [UB-181087] | < 0.01 | 0.1 to 1 | > 1 | 0.1 to 1 |  |  |  |  |  |
| CNC(=O)c1ccccc1Nc1nc(Nc2ccc(N3CCN(C(=O)NCCOCC(COCCOCCC(=O)Nc4cccc5c4CN(C4CCC(=O)NC4=O)C5=O)NC)CC3)cc2)ncc1Cl (stereo not drawn) [UB-181088] | < 0.01 | > 1 |  | > 1 |  | > 1 |  |  |  |
| CNC(=O)c1ccccc1Nc1nc(Nc2ccc(N3CCN(C(=O)NCCOCC(COCCOCCC(=O)Nc4ccc5c(c4)CN(C4CCC(=O)NC4=O)C5=O)NC)CC3)cc2)ncc1Cl (stereo not drawn) [UB-181090] | 0.01 to 0.1 | > 1 |  | > 1 |  | > 1 |  |  |  |
| CNC(=O)c1ccccc1Nc1nc(Nc2ccc(N3CCN(C(=O)N[C@H]4CC[C@@H](NCCCOCC#Cc5cccc6c5CN(C5CCC(=O)NC5=O)C6=O)CC4)CC3)cc2)ncc1Cl (stereo partly drawn) [UB-181091] | < 0.01 | 0.1 to 1 | 0.1 to 1 | > 1 |  |  |  |  |  |
| CNC(=O)c1ccccc1Nc1nc(Nc2ccc(N3CCN(C(=O)N[C@H]4CC[C@@H](NCCCOCCC(=O)Nc5cccc6c5CN(C5CCC(=O)NC5=O)C6=O)CC4)CC3)cc2)ncc1Cl (stereo partly drawn) [UB-181092] | 0.01 to 0.1 | > 1 | > 1 | > 1 |  |  |  |  |  |
| CNC(=O)c1ccccc1Nc1nc(Nc2ccc(N3CCN(C(=O)N[C@H]4CC[C@@H](NCCCOCCC(=O)Nc5ccc6c(c5)CN(C5CCC(=O)NC5=O)C6=O)CC4)CC3)cc2)ncc1Cl (stereo partly drawn) [UB-181093] | 0.01 to 0.1 | > 1 | > 1 | > 1 |  |  |  |  |  |
| CNC(=O)c1ccccc1Nc1nc(Nc2ccc(N3CCN(C(=O)NCCCOCCCNCCC#Cc4ccc5c(c4)CN(C4CCC(=O)NC4=O)C5=O)CC3)cc2)ncc1Cl (stereo not drawn) [UB-181094] | < 0.01 | 0.1 to 1 | > 1 | > 1 |  |  |  |  |  |

| SMILES | IC50 [1, 5] [µM] | IC50 [2, 6] [µM] | IC50 [3, 7] [µM] | IC50 ([4]; Homo sapiens, PC-3, PC-3 cells) [µM] | IC50 ([1]; MV4;11 cells) [µM] | IC50 [3, 8] [µM] | IC50 [3, 9] [µM] | IC50 ([4]; PC-3 cells) [µM] | IC50 ([2]; NCI-H82 cells) [µM] |
| --- | --- | --- | --- | --- | --- | --- | --- | --- | --- |
| CNC(=O)c1ccccc1Nc1nc(Nc2ccc(N3CCN(C(=O)NCCCCOCCCCNCCC#Cc4ccc5c(c4)CN(C4CCC(=O)NC4=O)C5=O)CC3)cc2)ncc1Cl (stereo not drawn) [UB-181095] | < 0.01 | 0.1 to 1 | > 1 | 0.1 to 1 |  |  |  |  |  |
| CNC(=O)c1ccccc1Nc1nc(Nc2ccc(N3CCN(C(=O)N[C@H]4CC[C@@H](NCCCOCC#Cc5ccc6c(c5)CN(C5CCC(=O)NC5=O)C6=O)CC4)CC3)cc2)ncc1Cl (stereo partly drawn) [UB-181096] | < 0.01 | 0.1 to 1 | 0.1 to 1 | 0.1 to 1 |  |  |  |  |  |
| CNC(=O)c1ccccc1Nc1nc(Nc2ccc(N3CCN(C(=O)N[C@H]4C[C@H](NCCCOCCC#Cc5ccc6c(c5)CN(C5CCC(=O)NC5=O)C6=O)C4)CC3)cc2)ncc1Cl (stereo partly drawn) [UB-181097] | 0.1 to 1 | > 1 | > 1 | > 1 |  |  |  |  |  |
| CNC(=O)c1ccccc1Nc1nc(Nc2ccc(N3CCN(C(=O)NCCCCOCCCCNC#Cc4cccc5c4CN(C4CCC(=O)NC4=O)C5=O)CC3)cc2)ncc1Cl (stereo not drawn) [UB-181098] | < 0.01 | 0.01 to 0.1 | > 1 | 0.1 to 1 |  |  |  |  |  |
| CNC(=O)c1ccccc1Nc1nc(Nc2ccc(N3CCN(C(=O)NC4CCC(NCCCCOCC(=O)Nc5ccc6c(c5)CN(C5CCC(=O)NC5=O)C6=O)CC4)CC3)cc2)ncc1Cl (stereo not drawn) [UB-181109] | 0.01 to 0.1 | 0.1 to 1 | > 1 | > 1 |  |  |  |  |  |
| CNC(=O)c1ccccc1Nc1nc(Nc2ccc(N3CCN(C(=O)NCCCOCCNCCC#Cc4ccc5c(c4)CN(C4CCC(=O)NC4=O)C5=O)CC3)cc2)ncc1Cl (stereo not drawn) [UB-181110] | 0.01 to 0.1 | 0.1 to 1 | > 1 | > 1 |  |  |  |  |  |
| CNC(=O)c1ccccc1Nc1nc(Nc2ccc(N3CCN(C(=O)NCCCOCCNCCC#Cc4cccc5c4CN(C4CCC(=O)NC4=O)C5=O)CC3)cc2)ncc1Cl (stereo not drawn) [UB-181111] | < 0.01 | 0.01 to 0.1 | > 1 | 0.1 to 1 |  |  |  |  |  |
| CNC(=O)c1ccccc1Nc1nc(Nc2ccc(N3CCN(C(=O)N[C@H]4CC[C@@H](NCCOCCC#Cc5cccc6c5CN(C5CCC(=O)NC5=O)C6=O)CC4)CC3)cc2)ncc1C#N (stereo partly drawn) [UB-181112] | < 0.01 | 0.1 to 1 | > 1 | > 1 |  |  |  |  |  |
| CNC(=O)c1ccccc1Nc1nc(Nc2ccc(N3CCN(C(=O)N[C@H]4CC[C@@H](NCCOCCC#Cc5ccc6c(c5)CN(C5CCC(=O)NC5=O)C6=O)CC4)CC3)cc2)ncc1C#N (stereo partly drawn) [UB-181114] | < 0.01 | 0.1 to 1 |  |  |  |  | > 1 | > 1 |  |
| CNC(=O)c1ncccc1Nc1nc(Nc2ccc(N3CCN(C(=O)N[C@H]4CC[C@@H](NCCOCCC#Cc5cccc6c5CN(C5CCC(=O)NC5=O)C6=O)CC4)CC3)cc2)ncc1C#N (stereo partly drawn) [UB-181116] | 0.1 to 1 | > 1 | > 1 | > 1 |  |  |  |  |  |
| CNC(=O)c1ncccc1Nc1nc(Nc2ccc(N3CCN(C(=O)N[C@H]4CC[C@@H](NCCOCCC#Cc5ccc6c(c5)CN(C5CCC(=O)NC5=O)C6=O)CC4)CC3)cc2)ncc1C#N (stereo partly drawn) [UB-181117] | 0.01 to 0.1 | > 1 | > 1 | > 1 |  |  |  |  |  |
| CNC(=O)c1ccccc1Nc1nc(Nc2ccc(N3CCN(C(=O)N[C@H]4CC[C@@H](NCCOCCC#Cc5cccc6c5CN(C5CCC(=O)NC5=O)C6=O)CC4)CC3)cc2)ncc1Cl (stereo partly drawn) [UB-181119] |  |  |  |  | < 0.01 |  | 0.1 to 1 | 0.01 to 0.1 | 0.1 to 1 |
| CNC(=O)c1ccccc1Nc1nc(Nc2ccc(N3CCN(C(=O)N[C@H]4CC[C@@H](NCCOCCC#Cc5cccc6c5CN(C5CCC(=O)NC5=O)C6=O)CC4)CC3)cc2)ncc1Cl (stereo partly drawn) [UB-181120] |  |  |  |  | < 0.01 |  | 0.1 to 1 | 0.01 to 0.1 | 0.1 to 1 |
| CNC(=O)c1ccccc1Nc1nc(Nc2ccc(N3CCN(C(=O)N[C@H]4CC[C@@H](NCCOCCC#Cc5ccc6c(c5)CN(C5CCC(=O)NC5=O)C6=O)CC4)CC3)cc2)ncc1C#N (stereo partly drawn) [UB-181123] |  |  |  |  | < 0.01 |  | 0.1 to 1 | 0.01 to 0.1 | 0.1 to 1 |
| CNC(=O)c1ncccc1Nc1nc(Nc2ccc(N3CCN(C(=O)N[C@H]4CC[C@H](NCCOCCC#Cc5cccc6c5CN(C5CCC(=O)NC5=O)C6=O)CC4)CC3)cc2)ncc1C#N (stereo partly drawn) [UB-181124] | 0.01 to 0.1 | > 1 | > 1 | 0.01 to 0.1 |  |  |  |  |  |
| CNC(=O)c1ccccc1Nc1nc(Nc2ccc(N3CCN(C(=O)NC4CCC(NCCOCCC#Cc5ccc6c(c5)CN(C5CCC(=O)NC5=O)C6=O)CC4)CC3)cc2)ncc1C#N (stereo not drawn) [UB-181125] | 0.01 to 0.1 | > 1 | > 1 | 0.1 to 1 |  |  |  |  |  |
